Assay results as given in PMC10671074, “Tumor Regression upon Intratumoral and Subcutaneous Dosing of the STING Agonist ALG-031048 in Mouse Efficacy Models” (International Journal of Molecular Sciences, 2023).
Values joined by “and” are separate entries in the source; they are usually repeats but may differ in a detail not shown here. Equal entries are not always repeated.

Legend:
STING R232 = STING R232 (Homo sapiens, UniProt Q86WV6, H232R); experiment: Thermal shift binding assay (differential scanning fluorimetry)
STING R232, sequence (Q86WV6 139-379 H232R): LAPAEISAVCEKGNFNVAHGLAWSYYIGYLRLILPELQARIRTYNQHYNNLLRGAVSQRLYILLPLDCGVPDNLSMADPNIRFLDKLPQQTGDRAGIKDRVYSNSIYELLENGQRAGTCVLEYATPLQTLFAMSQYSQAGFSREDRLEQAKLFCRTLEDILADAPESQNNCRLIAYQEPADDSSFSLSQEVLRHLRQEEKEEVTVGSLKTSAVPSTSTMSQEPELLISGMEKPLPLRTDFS
Method: Each sample was prepared in a total volume of 40 μL that contained a 5× final concentration of SYPRO orange (Invitrogen, Carlsbad, CA, USA) in buffer (20 mM of HEPES pH 7.5, 150 mM of NaCl, 1 mM of DTT, and 1 mM of MgCl2) and 4 μM of STING C-terminal domain protein with and without a test article. […] The resulting fluorescence intensity from the raw dissociation curve data were used to determine the melting temperature for STING protein alone or with a compound. Melting temperature from protein alone was then subtracted from all melting temperatures of protein in the presence of compound, and a resulting melting temperature vs. compound concentration provided apparent Kd values as generated using a sigmoidal dose–response (variable slope) equation in GraphPadPrism version 8.0 (GraphPad Software, Boston, MA, USA).

[1] = tested on: primary human immature dendritic cells; experiment: Cytokine release from immature dendritic cells; assay type: cell-based
Method: The iMDDCs harvested on Day 5 (25,000 cells/well) after differentiation from normal human CD14+ CD16− monocytes were stimulated with STING agonists for 24–48 h. An aliquot of iMDDCs was also cultured in maturation media for 24–48 h and used as a control containing RPMI 1640, 10% FBS, 2 mM L-glutamine, and human TNF-α (6000 IU/mL, Miltenyi Biotec). The supernatant from the plate was frozen to assess cytokine production, and cells were analyzed via flow cytometry.
CD11c+ monocyte‐derived dendritic cells. E: Live cells were selected based on live/dead staining
and cell size. F: Dot plot of size SSC‐A versus SSC‐H for doublet exclusion, gating on singlet cells.
G: Dot plot of CD209 vs CD11c to select CD209+CD11+ high monocyte‐derived dendritic cells.
Figure S4. Increased release of cytokines from iDCs after stimulation for 24 hours with 50 μ M of the […]

MC38-hPD-L1 tumors = experiment: MC38-hPD-L1 mouse colon carcinoma model; assay type: in vivo; details: 0.5 mg/kg SC, QW (2×)
Excerpt: Female C57/BL6 mice (Shanghai Lingchang Biotechnology Co., Ltd., Shanghai, China) were 5 to 8 weeks old with a body weight > 16 g at the time of inoculation. Animals were housed and fed as described above.
After inoculation with tumor cells, the animals were checked daily for morbidity and mortality. During routine monitoring, the animals were checked for any effects of tumor growth or test articles on behavior such as mobility, food and water consumption, body weight gain/loss (body weights were measured twice per week after randomization), eye/hair matting, and any other abnormalities. Tumor volumes were measured and calculated as described above.
Each group consisted of 10 animals. The control group was administered 5 mg/kg isotype control antibody in a volume of 10 μL/g of IP, BIW for 2.5 weeks, 5 doses total. The atezolizumab-treated group was administered 5 mg/kg in a volume of 10 μL/g of IP, BIW for 2.5 weeks, 5 doses total. […] Dosing started when average tumor volumes were 70 mm^3.

[2] = tested on: phosphodiesterase I from Crotalus adamanteus venom (SVPD)

CO[C@H]1[C@H]2OP(=O)(O)OC[C@@]34C[C@@H]3[C@@H](n3cnc5c(N)ncnc53)[C@H](O)[C@@H]4O[P@](=O)(S)OC[C@H]1O[C@H]2n1cnc2c(=O)[nH]c(N)nc21 [ALG-031048]
Kd (STING R232): 2710 nM | Maximum temperature shift (STING R232; STING R232 thermal shift assay, mean±standard deviation): 13.8 °C and 13.8±2.98 °C | IFN-γ and IL-6 release from iDCs ([1]; 24 h time point): either no increase or only a minimal increase | Cytokine release from iDCs ([1]; treatment for 24 h, 50 μM (Figure S4)): release of key cytokines IFN-β, IP-10, MIP-1α, MCP-1, and TNF-α | Tumor Reduction vs. Group 1 (vehicle) (MC38-hPD-L1 tumors; Day 11): 40.3% | TV on Day 11 (Median) (MC38-hPD-L1 tumors; n = 10, vehicle 2268): 1353 mm^3 | Stability after incubation with SVPD (in words) [2]: stable
